Experiments:
[1] = test system: RPTEC/TERT 1 human proximal tubule cells; assay: CaP-induced CaOx crystallization on RPTEC monolayers; assay type: cell-based; settings: CaP-induced model, 1.2 mM oxalate, 4 h
Method: For the assessment of CaP-induced CaOx crystallization, after 24 h of incubation, Ca/P spiked medium was removed, and cells were washed twice with PBS. Subsequently, medium containing 1.2 mM oxalate and compound was added to each well. After 4 h of incubation at 37° C. and 5% CO2 treatment was removed, and cells washed once with PBS before staining.
For staining, ProxUp basal medium was mixed with calcein (500 nM final concentration), EthD (6 μM final concentration), CellMask stain ([…]) and Hoechst 33342. Staining mixture was added to RPTEC and cells were incubated for 30 min in the dark at 37° C. and 5% CO2. Staining solution was removed, cells were washed with PBS once and ProxUp basal medium was added. Cells were immediately imaged after staining. […] For quantification 3 wells/condition were prepared and 3 images/well were taken. […]
To allow rapid profiling of molecules for their effects on diverse kidney calcification processes, the inventors developed a cell-based assay that allowed the monitoring of CaP deposition, as well as cellular changes associated with it. Therefore, the inventors utilized monolayers of renal proximal tubular cells (RPTEC) stained with various dyes to quantify calcification and cell morphology changes (FIG. 3). […] CaP deposits were detected via calcein staining (FIG. 3B). […]

[2] = reported, Schantl et al. 2020; cited from earlier work
[3] = test system: RPTEC/TERT 1 human proximal tubule cells; assay: Imaging assay of CaP adhesion/deposition and cellular changes on RPTEC monolayers; assay type: cell-based
Description: (A) Heatmap and hierarchical clustering of extracted image features. (B) Selected single features describing cellular changes upon increasing (OEG2)2-IP4 concentrations are depicted. Total cell count, dead cell count, single cell area and single cell solidity, a measure of cell compactness, are shown. (C) Selected single features describing changes in the CaP deposition and membrane pattern upon increasing (OEG2)2-IP4 concentrations are depicted. The total area of the binary calcein staining, colorimetric quantification of calcium content extracted from the monolayer, the maximum intensity of the calcein fluorescence, structural similarity index metric (SSIM) and the correlation of the CellMask channel image are shown. (D) Example brightfield, calcein, CellMask and EthD channel images and two zoomed-in regions of interests (ROI) of RPTEC treated with 13 μM (OEG2)2-IP4 are shown. Mean scaled values per individual experiment are plotted (N=3). Pos.ctrl presents treatment with 5/7 mM Ca/P, neg.ctrl presents medium without Ca/P spiking (=1/1 mM Ca/P present in normal cell medium). Mean of three individual experiments and SD is plotted as grey horizontal and vertical line respectively, one-way ANOVA with Dunnet's multiple comparison between each concentration to pos. ctrl was performed (* p<0.01).
RPTEC/TERT 1 monolayers at confluence were treated with medium spiked with 7 mM disodium phosphate, 5 mM calcium chloride and compound and were incubated for 24 h. The amount of CaP deposits and the extent of cell injury were detected by calcein and EthD staining, respectively. Fluorescence images were quantified using Matlab. Quantification of the area covered with CaP deposition on RPTEC monolayers with (A) OEG2-IP5, (B) OEG11-IP5, (C) (OEG2)2-IP4, and (D) OEG8-(IP5)2 treatment. (N=3, mean+SD, one-way ANOVA with Dunnett's multiple comparison, * p<0.05, ** p<0.01, *** p<0.001).
RPTEC/TERT 1 human proximal tubule cells (RPTEC) were cultured in T75 tissue culture flasks using ProxUp basal medium mixed with ProxUp supplements at 37° C. and 5% CO2 according to manufacturer's recommendations. Cells were used up to passage 30 and regularly tested for Mycoplasma infections. For experiments, RPTEC were cultured in 24-well plates at a seeding density of 150′000 cells/cm^2. Cell viability assessment and cell counting before seeding was performed using an automated cell counter (BioRad TC 20, Hercules, CA, USA).
For the comparison of selected IP6 analogues, ProxUp basal medium was prepared with the selected inhibitor and added to each well. Then, CaP precipitation was induced by direct addition of first, phosphate and second, calcium. Final concentrations of 7 mM phosphate and 5 mM calcium were used. Cells were incubated for 24 h at 37° C. and 5% CO2. Spiked medium was removed, and cells were washed twice with PBS before staining.
For staining, ProxUp basal medium was mixed with calcein (500 nM final concentration), EthD (6 μM final concentration), CellMask stain ([…]) and Hoechst 33342. Staining mixture was added to RPTEC and cells were incubated for 30 min in the dark at 37° C. and 5% CO2. Staining solution was removed, cells were washed with PBS once and ProxUp basal medium was added. Cells were immediately imaged after staining. Images were obtained by epifluorescence microscopy at 37° C., using a Leica CTR6000 microscope. For quantification 3 wells/condition were prepared and 3 images/well were taken. For preliminary adhesion experiments images were taken with a 10× objective, for the imaging assay 20× objective images were taken.
Multichannel images were saved as individual channel images in 8-bit tiff format. For analysis Hoechst channel images were thresholded using the triangle threshold. Touching nuclei of the binary image were further segmented using the watershed algorithm with the distance transform of the binary image as input and local maxima thereof as seeds. […]

[4] = 6-50 μM, 5/7 mM Ca/P, compared to the positive ctrl
[5] = RPTEC, 7 mM phosphate, 5 mM calcium, 24 h

Q: Which results are given for COCCOCCO[C@@H]1C(OP(=O)(O)O)[C@H](OCCOCCOC)[C@@H](OP(=O)(O)O)C(OP(=O)(O)O)[C@H]1OP(=O)(O)O (stereo partly shown) [(OEG2)2-IP4]?
A: CaP-induced CaOx crystallization [1]: reduced; concentration at which COD was almost entirely abolished [1]: 100 µM; pharmacokinetic profile [2]: favorable; number of dead cells [3, 4]: dose-dependently reduced; single cell area [3, 4]: dose-dependently reduced; single cell solidity [3, 4]: increased; total cell count/field of view [3, 4]: increased; total CaP area ([3]; 6 and 13 μM, 5/7 mM Ca/P, compared to the positive ctrl): reduction; concentration achieving complete inhibition of CaP adhesion [3, 5]: 50 µM; concentration down to which CaP adhesion was drastically reduced [3, 5]: 12.5 µM

— patent US12076331B2, “Inositol derivatives for use in pathological crystallization” (ETH Zurich, priority 2015, dated 2024)
